Data reported in patent US9623016B2, “Antibacterial compounds” (Emergent Virology LLC, priority 2013, dated 2017).
Read-outs that look alike come from different tables or passages of the source.

Assays:
[1] = system: E. coli (WT)
Method: (§1) The MIC assay is a technique used to determine the lowest concentration of a particular antibiotic needed to inhibit visible growth of bacteria. In this method, two fold serial dilutions of the compound were prepared in broth media. An inoculum of overnight bacterial cultures will be prepared in the same broth medium. The serial dilution tubes will be inoculated with 0.025 ml of undiluted over-night culture (1:100), a 1×10-2 dilution (1:10,000), or a 1×10-4 dilution (1:1,000,000) of bacterial suspension. Results were recorded after 24 hour incubation at 35° C. without shaking by measuring OD600. The MIC is determined by the lowest concentration of compound where no growth is visible.

[2] = system: P. aeruginosa 4858
Method: as §1

[3] = system: P. aeruginosa 4961
Method: as §1

[4] = system: P. aeruginosa 4990
Method: as §1

[5] = system: S. aureus (8324-5)
Method: as §1

[6] = system: Staphylococcus aureus USA300; settings: 200 mg/kg UV-4B orally TID for 10 days, from 3 days before IP challenge; water control 30%
Method: The challenge inoculum included 6.13e4 cfu USA300+3% Hog mucin which causes bacteremia/sepsis within 24-72 h. […] The mice used were 6-8 week old female BALB/c mice in groups of 10. One group of 5 mice was also included to examine the potential toxicity of 3% hog mucin. Endpoint was day 10 post infection, death, or euthanasia Animals displaying severe illness as determined by >30% weight loss, extreme lethargy, or paralysis were euthanized. Observation included daily weight, health checks, and temperatures starting with the initiation of dosing until 10 days post challenge.

[7] = system: S. aureus USA 300 alpha toxin; settings: 3 h incubation; hemolysis of 2% rabbit RBC, OD416 nm; FIG. 4
Method: • 1. Grow USA300 in MHA plate O/N • 2. Swab bacteria culture from plate and re-suspend in 2 ml PBS • 3. Spin and discard sup. • 4. Wash with 2 ml of PBS. • 5. Re-suspend in 2 ml LB. • 6. […] Add inoculum (make two different inoculum size: 1 and 1:10 in LB). […] Incubate at 370 C for 3 h • 11. Read growth OD600 (T3). • 12. Perform alpha hemolytic assay by using 2% rabbit RBC. Read OD416 nm (T3 hemolysis)

SMILES: COCCCCCCCCCN1C[C@H](O)[C@@H](O)[C@H](O)[C@H]1CO.Cl [UV-4B, hydrochloric acid salt of N-(9-Methoxynonyl)deoxynojirimycin]
- MIC ([1]; Table 3): 5000 µg/mL
- visible growth ([1]; UV-4B 0.02 mg/ml): +
- visible growth ([1]; UV-4B 0.04 mg/ml): +
- visible growth ([1]; UV-4B 0.08 mg/ml): +
- visible growth ([1]; UV-4B 0.16 mg/ml): +
- visible growth ([1]; UV-4B 0.31 mg/ml): +
- visible growth ([1]; UV-4B 0.63 mg/ml): +
- visible growth ([1]; UV-4B 2.50 mg/ml): +
- visible growth ([1]; UV-4B 5 mg/ml): −
- visible growth ([1]; UV-4B 10 mg/ml): −
- MIC ([2]; Table 3): 5000 µg/mL
- MIC ([2]; Table 4): 2500 µg/mL
- growth (OD600) ([2]; Table 4, 0.02 mg/ml): + (+ OD600 <0.05)
- growth (OD600) ([2]; Table 4, 0.04 mg/ml): + (+ OD600 <0.05)
- growth (OD600) ([2]; Table 4, 0.08 mg/ml): + (+ OD600 <0.05)
- growth (OD600) ([2]; Table 4, 0.16 mg/ml): + (+ OD600 <0.05)
- growth (OD600) ([2]; Table 4, 0.31 mg/ml): + (+ OD600 <0.05)
- growth (OD600) ([2]; Table 4, 0.63 mg/ml): + (+ OD600 <0.05)
- growth (OD600) ([2]; Table 4, 2.50 mg/ml): − (− OD600 >0.05)
- growth (OD600) ([2]; Table 4, 5 mg/ml): − (− OD600 >0.05)
- growth (OD600) ([2]; Table 4, 10 mg/ml): − (− OD600 >0.05)
- growth (OD600) ([2]; Table 4, 20 mg/ml): − (− OD600 >0.05)
- visible growth ([2]; UV-4B 0.63 mg/ml): +
- visible growth ([2]; UV-4B 2.50 mg/ml): +
- visible growth ([2]; UV-4B 5 mg/ml): −
- visible growth ([2]; UV-4B 10 mg/ml): −
- visible growth ([2]; UV-4B 20 mg/ml): −
- MIC ([3]; Table 3): 5000 µg/mL
- visible growth ([3]; UV-4B 0.04 mg/ml): +
- visible growth ([3]; UV-4B 0.08 mg/ml): +
- visible growth ([3]; UV-4B 0.16 mg/ml): +
- visible growth ([3]; UV-4B 0.31 mg/ml): +
- visible growth ([3]; UV-4B 0.63 mg/ml): +
- visible growth ([3]; UV-4B 2.50 mg/ml): +
- visible growth ([3]; UV-4B 5 mg/ml): −
- visible growth ([3]; UV-4B 10 mg/ml): −
- visible growth ([3]; UV-4B 20 mg/ml): −
- MIC ([4]; Table 3): 5000 µg/mL
- visible growth ([4]; UV-4B 0.04 mg/ml): +
- visible growth ([4]; UV-4B 0.08 mg/ml): +
- visible growth ([4]; UV-4B 0.16 mg/ml): +
- visible growth ([4]; UV-4B 0.31 mg/ml): +
- visible growth ([4]; UV-4B 0.63 mg/ml): +
- visible growth ([4]; UV-4B 2.50 mg/ml): +
- visible growth ([4]; UV-4B 5 mg/ml): −
- visible growth ([4]; UV-4B 10 mg/ml): −
- visible growth ([4]; UV-4B 20 mg/ml): −
- MIC ([5]; Table 3, two independent tests): 2500 µg/mL
- MIC ([5]; Table 4): 1250 µg/mL
- growth (OD600) ([5]; Table 4, 0.02 mg/ml): + (+ OD600 <0.05)
- growth (OD600) ([5]; Table 4, 0.04 mg/ml): + (+ OD600 <0.05)
- growth (OD600) ([5]; Table 4, 0.08 mg/ml): + (+ OD600 <0.05)
- growth (OD600) ([5]; Table 4, 0.16 mg/ml): + (+ OD600 <0.05)
- growth (OD600) ([5]; Table 4, 0.31 mg/ml): + (+ OD600 <0.05)
- growth (OD600) ([5]; Table 4, 0.63 mg/ml): + (+ OD600 <0.05)
- growth (OD600) ([5]; Table 4, 2.50 mg/ml): − (− OD600 >0.05)
- growth (OD600) ([5]; Table 4, 5 mg/ml): − (− OD600 >0.05)
- growth (OD600) ([5]; Table 4, 10 mg/ml): − (− OD600 >0.05)
- growth (OD600) ([5]; Table 4, 20 mg/ml): − (− OD600 >0.05)
- visible growth ([5]; UV-4B 0.04 mg/ml): +
- visible growth ([5]; UV-4B 0.08 mg/ml): +
- visible growth ([5]; UV-4B 0.16 mg/ml): +
- visible growth ([5]; UV-4B 0.31 mg/ml): +
- visible growth ([5]; UV-4B 0.63 mg/ml): +
- visible growth ([5]; UV-4B 2.50 mg/ml): −
- visible growth ([5]; UV-4B 5 mg/ml): −
- visible growth ([5]; UV-4B 10 mg/ml): −
- visible growth ([5]; UV-4B 20 mg/ml): −
- survival [6]: 80%
- concentration allowing inhibition of alpha toxin production [7]: higher than 2.5 mg/ml
